Experimental data published in patent EP4640674A1, “CRYSTAL FORMS OF ETHOXIMOD, PREPARATION METHOD THEREFOR AND USE THEREOF” (Jiankuan (Suzhou) Biotechnology Co., Ltd, priority 2022, dated 2024).

Columns and labels:
[1] = Equilibrium solubility in organic solvents at room temperature (HPLC; solid by XRPD); type: physicochemical; details: equilibrium for 24 h; for solubility at 24 h: organic solvent or mixture, thermodynamic from solid; for solubility: hydrochloride
Protocol: The crystal form A and the crystal form B of ethoximod were prepared into solutions at room temperature with ethanol, acetone and ethyl acetate. After equilibrium for 24 h, filtration was performed to obtain saturated solutions, and contents of the samples in the saturated solutions were measured through high-performance liquid chromatography (HPLC) (diluting the filtrates as needed). Crystal forms of the solids before and after the experiment were characterized through XRPD to check whether phase transition had occurred.

[2] = Bulk density and tap density test, Hausner ratio and compressibility; type: physicochemical; details: hydrochloride; for Compressibility: (tap density - bulk density)/tap density; for Hausner Ratio: tap density/bulk density
Protocol: In this experiment, the measurement was performed by using a tap instrument according to a fixed volume method. Specific operations are as follows: the weighed powders were loaded into a 50 mL graduated cylinder, and the graduated cylinder was fixed on a support; the tap instrument was set to vibrate 55±5 times per minute for 6-8 min; a change in a volume of the powders in the measuring cup was measured. A ratio of a mass of the powders to a volume (50 mL) of the materials before the tap is the bulk density of the powders, and a ratio of the mass of the powders to a volume of the materials after the tap is the tap density of the powders. Methods for converting Hausner ratio and compressibility are as follows, and the description of Hausner ratio and flowability is shown in Table 8: Table 6 Physical properties of crystal form A and crystal form B

solubility at 24 h ([1]; acetone) [µg/mL] | solubility at 24 h ([1]; ethanol) [µg/mL] | solubility ([1]; ethyl acetate) [µg/mL] | Compressibility [2] | Bulk Density [2] [g/mL] | Tap Density [2] [g/mL] | Hausner Ratio [2] | solubility ([1]; acetone) [µg/mL] | solid-state crystal form ([1]; ethanol) | solubility ([1]; ethanol) [µg/mL] | Compound
30 | 3470 | 40 | 54.0 | 0.2578 | 0.5604 | 2.2 | – | – | – | CCc1nc(-c2ccc(-c3ccc(CCC(N)(CO)CO)cc3)cc2)co1.Cl [crystal form A, 2-amino-2-{2-(4'-(2-ethyloxazol-4-yl)-[1,1'-biphenyl]-4-yl)ethyl}-1,3-propylene glycol hydrochloride]
– | – | 10 | 62.0 | 0.0742 | 0.1953 | 2.6 | 20 | C, with relatively poor crystallinity | 5050 | CCc1nc(-c2ccc(-c3ccc(CCC(N)(CO)CO)cc3)cc2)co1.Cl [crystal form B, 2-amino-2-{2-(4'-(2-ethyloxazol-4-yl)-[1,1'-biphenyl]-4-yl)ethyl}-1,3-propylene glycol hydrochloride]
